Kd data for 1 sequence are collected here from paper PMC4670726, “Systematic discovery of linear binding motifs targeting an ancient protein interaction surface on MAP kinases” (Molecular Systems Biology, 2015).

The target in one test is T1, p38α (Homo sapiens, UniProt Q16539).
T1 construct: hexa-histidine; made in house; host or cells: E. coli (Rosetta pLysS)
Put plainly: Fluorescence polarization (FP) competitive protein-peptide binding assay, p38α. Particulars: FP competition titration of unlabeled synthetic peptide against 50 nM fluorescently labeled pepMK2 or pepMEF2A, MAPK at ~60–80% complex formation, 384-well, triplicates, average FP signal fitted; limit of quantitation ~100 μM. The method, then: (§1) In addition to confirming binding in the MAPK‐docking groove, the dissociation constant (Kd) of unlabeled test peptides could also be calculated.
(§2) Dashes indicate cases where the curves could not be fitted (the Kd is above the limit of quantitation of this assay, approximately ~100 μM). Peptides are grouped in two clusters, the first being the strong JNK1 binders (frequently with little or no ERK2/p38α‐binding ability). The second group (below the magenta line) contains peptides with strong ERK2‐ and p38α‐binding capacity (but often little or no affinity toward JNK1). […] Gab3+ is the ortholog of a peptide from Gab1 which was tested as positive in the dot‐blot experiments. The two Gab3 motifs are related neither by structure nor by evolutionary origin. […]
(§3) For fluorescence polarization (FP)‐based binding affinity measurements, known MAPK‐docking groove‐binding peptides were N‐terminally labeled with carboxyfluorescein or carboxytetramethylrhodamine (for ERK2, pepRSK1: […]; for p38α, pepMK2: […] or pepMEF2A: […]; for JNK1, pep JIP3: […]). […] Subsequently, increasing amounts of chemically synthesized test peptides were added, and the FP signal was measured with a Synergy H4 (BioTek Instruments) plate reader in 384‐well plates. The Ki for each unlabeled peptide was determined by fitting the data to a competition binding equation. […]

The target in another test is T2, ERK2 (Homo sapiens, UniProt P28482).
T2 construct: hexa-histidine; made in house; host or cells: E. coli (Rosetta pLysS)
T2 sequence (P28482 whole entry): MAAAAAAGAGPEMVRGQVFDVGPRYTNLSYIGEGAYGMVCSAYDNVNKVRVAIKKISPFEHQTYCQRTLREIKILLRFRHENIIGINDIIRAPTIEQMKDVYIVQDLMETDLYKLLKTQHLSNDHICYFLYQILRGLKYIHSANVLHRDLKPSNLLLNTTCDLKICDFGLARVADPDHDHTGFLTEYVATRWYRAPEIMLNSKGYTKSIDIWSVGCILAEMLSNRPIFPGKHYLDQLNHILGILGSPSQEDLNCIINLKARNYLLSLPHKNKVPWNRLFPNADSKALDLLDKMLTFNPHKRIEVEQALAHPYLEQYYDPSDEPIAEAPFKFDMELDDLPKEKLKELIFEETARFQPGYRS
Put plainly: Fluorescence polarization (FP) competitive protein-peptide binding assay, ERK2. Particulars: FP competition titration of unlabeled synthetic peptide against 50 nM fluorescently labeled pepRSK1, MAPK at ~60–80% complex formation, 384-well, triplicates, average FP signal fitted; limit of quantitation ~100 μM. As to the method:
as §1, §2, §3

In a further test the target is T3, JNK1 (Homo sapiens, UniProt P45983).
T3 construct: hexa-histidine; made in house; host or cells: E. coli (Rosetta pLysS)
T3 sequence (P45983 whole entry): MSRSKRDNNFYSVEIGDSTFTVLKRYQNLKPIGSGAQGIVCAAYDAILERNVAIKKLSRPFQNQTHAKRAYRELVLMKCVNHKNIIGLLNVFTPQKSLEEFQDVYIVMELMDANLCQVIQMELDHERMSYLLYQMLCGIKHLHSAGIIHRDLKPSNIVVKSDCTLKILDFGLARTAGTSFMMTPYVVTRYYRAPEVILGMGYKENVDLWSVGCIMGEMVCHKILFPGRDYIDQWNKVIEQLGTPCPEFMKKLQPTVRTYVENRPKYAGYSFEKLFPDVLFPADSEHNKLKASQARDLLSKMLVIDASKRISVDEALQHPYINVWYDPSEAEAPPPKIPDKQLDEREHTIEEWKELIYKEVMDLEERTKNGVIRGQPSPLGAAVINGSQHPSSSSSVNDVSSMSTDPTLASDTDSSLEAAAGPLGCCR
Put plainly: Fluorescence polarization (FP) competitive protein-peptide binding assay, JNK1. As to conditions: FP competition titration of unlabeled synthetic peptide against 50 nM fluorescently labeled pep JIP3, MAPK at ~60–80% complex formation, 384-well, triplicates, average FP signal fitted; limit of quantitation ~100 μM. As to the method: as §1, §2, §3
(In general: Polarisation of emitted light reports the rotation of a fluorescent probe.)

Ends that are not written are not given here.

T1 sequence (Q16539 whole entry): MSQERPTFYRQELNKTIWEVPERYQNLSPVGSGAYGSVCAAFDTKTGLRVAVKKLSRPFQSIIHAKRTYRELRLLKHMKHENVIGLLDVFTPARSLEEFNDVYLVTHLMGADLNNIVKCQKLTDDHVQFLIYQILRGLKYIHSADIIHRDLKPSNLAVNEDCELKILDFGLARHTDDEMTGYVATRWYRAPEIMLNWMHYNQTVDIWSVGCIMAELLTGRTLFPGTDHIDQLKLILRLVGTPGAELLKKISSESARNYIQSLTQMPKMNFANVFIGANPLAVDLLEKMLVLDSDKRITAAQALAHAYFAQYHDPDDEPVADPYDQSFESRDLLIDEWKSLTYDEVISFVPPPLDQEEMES

KPQRKSRPPPLDLRNLS [GAB3+]: the Kd – broadly, the concentration at which binding is half-saturated – worked out at 2 µM at p38α, 0.7 µM at ERK2 and 13.2 µM on JNK1.
